Here are results for 6 compounds from patent publication US20260225998A1, “NEW COMPOUNDS FOR TREATING STREPTOCOCCUS INFECTIONS” (AB2 THERAPEUTICS, S. L., priority 2023, published 2026).

One assay has as its system Streptococcus pneumoniae. Nature of the assay: MIC test, microdilution method (CLSI). The format is cell-based. Conditions: ATCC strain of Streptococcus pneumoniae, 18-20 h at 37° C., MIC = concentration at which growth inhibited ≥80%, read-out: Activity (MIC) Spn. Here is the method:
(§1) Experimental Procedure: MIC Test. Microdilution Method
(§2) To evaluate the antimicrobial activity of the compounds, ATCC strains of Streptococcus pneumoniae and Streptococcus pyogenes were used. The minimal inhibitory concentrations (MICs) of the compounds were determined by microdilution assays, according to CLSI methodology.
(§3) 3 mg of compound were weighted in a 4 mL glass vials and were dissolved in properly volume of DMSO 100% (Reference: D2438-50, Sigma) to reach 12.8 mg/mL. (Cmax.).
(§4) In 96-well plates U-form (Reference: 650161, Greiner Bio-One): • Dispense 50 μL of the assayed compounds prepared in DMSO 100% at 12.8 mg/mL in each well in column 1. (8 different compounds per plate, row 1 to row 8) • Dispense 25 μL of DMSO 100% in all wells in columns 2 to 12. • With a multichannel pipette, aspire 25 μL of column 1 and dispense in column 2. Mix the contents in column 2 several times and aspire 25 uL. Dispense in column 3. • Repeat the process until column 10. In column 10, aspire 25 μL of the content and discard. • The final mother plate map is (all values in mg/mL)
(§5) In 96-well plates U-form: • With a multichannel pipette (in dispensing mode), aspire a properly volume (consider the number of copies of the mother plate do you want to perform) of all wells in mother plate, to dispense 1 μL/well in daughter plates.
(§6) Bacterial suspension will be prepared and normalized to 0.5 McFarland turbidity standard (approximately 10^8 CFU/mL) using a physiological saline solution (sodium chloride 0,9%). Then, prepared a 1/1000 dilution (approximately 10^5 CFU/mL) of the suspension in appropriate media (CLSI Standard) and inoculate 99 μL in each well in daughter plates (only columns 1 to 11) using a multidrop™ Combi Reagent Dispenser. In column 12, only 99 μL of media will be dispense as a sterility control.
(§7) The final plate map is (all values in μg/mL):
(§8) Plates will be incubated 18-20 h at 37° C. MIC values will be considered as the concentration of compounds at which the growth will be inhibited=>≥80%, compared to growth control.
Background: Dilution methods test growth across graded concentrations, often in twofold steps.

In another assay the test system is Streptococcus pyogenes. Nature of the assay: MIC test, microdilution method (CLSI). The class given is cell-based. As to conditions: ATCC strain of Streptococcus pyogenes, 18-20 h at 37° C., MIC = concentration at which growth inhibited ≥80%, read-out: Activity (MIC) Spy. Here is the method: as §1, §2, §3, §4, §5, §6, §7, §8

Values after ≈ are worked out from the molar mass of the structure shown. Where only a bound is given, the exact number is not on record here.

For `NC(=O)[C@@H](O)CNC(=O)c1ccc(O[C@@H](CC2CCCCC2)c2ccc(-c3ccc(F)cc3)cc2)cc1` [Example 1, N-((S)-3-Amino-2-hydroxy-3-oxopropyl)-4-((S)-2-cyclohexyl-1-(4′-fluoro-[1,1′-biphenyl]-4-yl)ethoxy)benzamide], the MIC in the assay on Streptococcus pneumoniae and in the assay on Streptococcus pyogenes was 4 µg/mL (≈ 7.93 µM) in each case.

Regarding `CNC(=O)[C@@H](O)CNC(=O)c1ccc(O[C@@H](CC2CCCCC2)c2cccc(-c3ccc(C(F)(F)F)cc3)c2)cc1` [Example 8, 4-((S)-2-cyclohexyl-1-(4′-(trifluoromethyl)-[1,1′-biphenyl]-3-yl)ethoxy)-N-((S)-2-hydroxy-3-(methylamino)-3-oxopropyl)benzamide], the MIC in the assay with Streptococcus pneumoniae and in the assay on Streptococcus pyogenes was 4 µg/mL (≈ 7.03 µM) throughout.

With `NC(=O)[C@@H](O)CNC(=O)c1ccc(O[C@@H](CC2CCCCC2)c2cccc(-c3ccc(C(F)(F)F)cc3)c2)cc1` [Example 2, N-((S)-3-Amino-2-hydroxy-3-oxopropyl)-4-((S)-2-cyclohexyl-1-(4′-(trifluoromethyl)-[1,1′-biphenyl]-3-yl)ethoxy)benzamide], the MIC worked out at 2 µg/mL (≈ 3.61 µM) in the assay with Streptococcus pneumoniae and 1 µg/mL (≈ 1.8 µM) with Streptococcus pyogenes.

Consider `CC(C)[C@H](Oc1ccc(C(=O)NC[C@H](O)C(N)=O)cc1)c1ccc(-c2ccc(C(F)(F)F)cc2)cc1` [Example 6, N-((S)-3-amino-2-hydroxy-3-oxopropyl)-4-((S)-2-methyl-1-(4′-(trifluoromethyl)-[1,1′-biphenyl]-4-yl)propoxy)benzamide], for which the MIC in the assay with Streptococcus pneumoniae and with Streptococcus pyogenes was 4 µg/mL (≈ 7.99 µM) throughout.

In the case of `NC(=O)[C@@H](O)CNC(=O)c1ccc(O[C@@H](CC2CCOCC2)c2ccc(-c3ccc(C(F)(F)F)cc3)cc2)cc1` [Example 4, N-((S)-3-amino-2-hydroxy-3-oxopropyl)-4-((S)-2-(tetrahydro-2H-pyran-4-yl)-1-(4′-(trifluoromethyl)-[1,1′-biphenyl]-4-yl)ethoxy)benzamide], the MIC in the assay on Streptococcus pneumoniae and with Streptococcus pyogenes was over 128 µg/mL in each case.

`CC(C)C[C@H](Oc1ccc(C(=O)NC[C@H](O)C(N)=O)cc1)c1ccc(-c2ccc(C(F)(F)F)cc2)cc1` [Example 5, N-((S)-3-amino-2-hydroxy-3-oxopropyl)-4-((S)-3-methyl-1-(4′-(trifluoromethyl)-[1,1′-bipheny]-4-yl)butoxy)benzamide]: the MIC in the assay with Streptococcus pneumoniae and in the assay on Streptococcus pyogenes was over 128 µg/mL in each case.

In general, MIC refers to the least concentration at which growth counts as inhibited.
